Measured values from publication PMC10216263, “Favorable Preclinical Pharmacological Profile of a Novel Antimalarial Pyrrolizidinylmethyl Derivative of 4-amino-7-chloroquinoline with Potent In Vitro and In Vivo Activities” (Biomolecules, 2023).
Several values for one entry are separate records, joined by “and”; a condition that tells them apart may be missing. Equal values may be shown once. Read-outs that look alike come from different tables or passages of the source.

Experiments:
CYP2C9 = CYP2C9 (Homo sapiens, UniProt P11712); assay: in vitro
Sequence of CYP2C9 (P11712 whole entry): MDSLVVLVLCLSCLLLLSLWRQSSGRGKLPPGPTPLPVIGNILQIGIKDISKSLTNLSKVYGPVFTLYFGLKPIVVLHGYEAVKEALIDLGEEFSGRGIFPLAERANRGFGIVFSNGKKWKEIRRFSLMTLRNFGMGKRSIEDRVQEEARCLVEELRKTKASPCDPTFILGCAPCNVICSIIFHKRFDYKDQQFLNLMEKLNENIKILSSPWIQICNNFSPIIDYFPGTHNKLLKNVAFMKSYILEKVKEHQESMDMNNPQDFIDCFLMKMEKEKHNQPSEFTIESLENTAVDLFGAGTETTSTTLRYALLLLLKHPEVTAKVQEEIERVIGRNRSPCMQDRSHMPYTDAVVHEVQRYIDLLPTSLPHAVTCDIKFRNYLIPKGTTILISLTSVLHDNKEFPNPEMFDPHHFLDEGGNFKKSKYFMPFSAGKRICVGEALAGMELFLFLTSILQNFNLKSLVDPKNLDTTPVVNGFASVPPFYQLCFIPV

[1] = system: Escherichia coli WP2 uvrA; assay: Bacterial Reverse Mutation Assay; conditions: with metabolic activation
Experimental: (§1) using the preincubation method (30 min, 37°C) with and without phenobarbital-5,6-benzoflavone induced
(§2) MG3 was dissolved in distilled water (H2O) at
(§3) the maximum concentration of 40 mg/mL and tested in a preliminary range-finding test in all strains of
(§4) metabolic activation to determine the toxicity of the compound.

[2] = system: P. falciparum IPC5202 (ARM-R); assay: microbe, parasite or virus in culture; type: cell-based
Experimental: The strains D10 and 3D7 (CQ-Sensitive), and V1-S (CQ, pyrimethamine and cycloguanil resistant), K1 (CQ and PYR resistant), W2 and FCR3 (CQ-Resistant), TM90C2A (CQ, MQ, PYR and ATQ resistant) and IPC 5202 (MR4-1240, artemisinin-resistant, K13 mutation, and R539T) of Pf were cultured in vitro as described by Trager and Jensen with minor modifications. Briefly, parasites were maintained at 5% hematocrit (human type A-positive red blood cells) in RPMI 1640 (EuroClone, S.p.A. Milan, Italy) medium with the addition of 10% heat inactivate human serum or 1% AlbuMax (In vitrogen, Milan, Italy), 20 mM Hepes and 2 mM glutamine (Euroclone), at 37 °C in a standard gas mixture consisting of 1–3% O2, 5% CO2, and 92–94% N2.
Compounds were dissolved in either water or DMSO and then diluted with medium to achieve the required concentrations (final non-toxic DMSO concentration <1%). Asynchronous cultures of Pf with parasitaemia of 1–1.5% and 1% final hematocrit were aliquoted into 96-well flat-bottom microplates (Corning, Glendale, AZ, USA) with serial dilutions of test compounds and incubated for 72 h at 37 °C. Parasite growth was determined spectrophotometrically (OD650) by measuring the activity of the parasite lactate dehydrogenase (pLDH) according to a modified version of the method of Makler in control and drug-treated cultures.

P. yoelii NS = assay: Four-day suppressive Peters' test, oral; type: in vivo, P. yoelii in CD1 mice; conditions: once a day for 4 days, parasitemia day 4, CD1 mice
Experimental: Groups of five CD1 mice were inoculated i.v., with 4 × 10^6 infected erythrocytes/mice. Compounds, dissolved in standard suspending formula (SSV) (0.5% sodium carboxymethylcellulose, 0.5% benzyl alcohol, 0.4% Tween 80, and 0.9% NaCl), were administered once a day for 4 days via oral gavage, starting two hours post-infection. […] Parasitemia was evaluated using microscopic examination of Giemsa-stained blood films taken on day four, processed using MICROSOFT® EXCEL spreadsheets (Microsoft Corp., Redmond, WA, USA), and expressed as percentages of inhibition from the arithmetic mean parasitemia of each group in relation to the untreated group. ED50 and ED90 values were calculated using GraphPad Prism 6 (GraphPad Software Inc., La Jolla, CA, USA).

7-day oral DRF in dog = type: in vivo, Beagle dog; conditions: dogs, 15 and 30 mg/kg/day oral, 7 days
Experimental: Seven days oral DRF in rats and dog, and five days oral DRF in Non-Human Primates (NHP) were performed using Sprague Dawley rats (n = 3/time point) of both sexes, one male and one female dog Beagle (Marshall/Green Hill) and one male and one female monkeys/Cynomolgus (Noveprim Ltd., Mahebourg Mauritius,). MG3 was administered as oral suspension in 0.5% methocel in water (400 cP viscosity) at the following doses: 30, 60 and 120 mg/kg/day for 7 days (rat), 15 and 30 mg/kg/days for 7 days (dog) and 25, 50 and 75 mg/kg/day (NHP). No Observed Effects Levels (NOEL) were determined. Mortality, behavior, and general conditions were observed daily. Body weight was recorded pre-test, and on Days 1, 4 and 7. Food consumption was recorded from Days 1 to 4 and 4 to 7. Hematological and clinical chemistry examinations were performed on Day 8. All animals were sacrificed under anesthesia at the end of the treatment period on Day 8 of study. Post-mortem examinations included necropsy, collection, and histological examination performed of selected organs/tissues.

[3] = system: Salmonella typhimurium TA100; assay: Bacterial Reverse Mutation Assay; conditions: TA 100, with metabolic activation
Experimental: as §1, §2, §3, §4

CYP2C19 = CYP2C19 (Homo sapiens, UniProt P33261); assay: in vitro
Sequence of CYP2C19 (P33261 whole entry): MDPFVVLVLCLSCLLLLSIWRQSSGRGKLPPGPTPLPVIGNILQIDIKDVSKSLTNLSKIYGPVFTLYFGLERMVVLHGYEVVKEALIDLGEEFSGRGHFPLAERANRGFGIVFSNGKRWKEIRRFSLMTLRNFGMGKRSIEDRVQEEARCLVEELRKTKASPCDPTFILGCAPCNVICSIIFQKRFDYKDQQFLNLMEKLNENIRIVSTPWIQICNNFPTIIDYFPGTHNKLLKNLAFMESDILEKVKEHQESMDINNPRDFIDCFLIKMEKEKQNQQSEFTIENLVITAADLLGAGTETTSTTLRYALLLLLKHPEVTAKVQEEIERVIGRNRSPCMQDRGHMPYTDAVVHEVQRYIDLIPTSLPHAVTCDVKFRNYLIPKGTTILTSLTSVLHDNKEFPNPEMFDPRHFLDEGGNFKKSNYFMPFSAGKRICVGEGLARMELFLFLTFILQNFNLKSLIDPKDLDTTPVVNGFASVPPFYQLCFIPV

P. falciparum 3D7 (CQ-S) = assay: In vitro combination study (isobologram, ∑FIC); type: cell-based

In the case of Clc1ccc2c(NCC34CCCN3CCC4)ccnc2c1 [MG3, 7-Chloro-N-((hexahydro-1H-pyrrolizin-7a-yl)methyl)quinolin-4-amine], the inhibition at 3 µM (CYP2C9) is reported as 8.8 ± 2.2%, the “fold increase value (ratio treated/solvent revertant numbers)” value ([1]; I° Exp., 62.5 µg/plate) is reported as 1.4 and the “fold increase value (ratio treated/solvent revertant numbers)” value ([1]; I° Exp., 125 µg/plate) is reported as 1.4. For the same compound, the “fold increase value (ratio treated/solvent revertant numbers)” value ([1]; I° Exp., 250 µg/plate) was 1.5, the “fold increase value (ratio treated/solvent revertant numbers)” value ([1]; I° Exp., 500 µg/plate) was 0.8 and the “fold increase value (ratio treated/solvent revertant numbers)” value ([1]; I° Exp., 1000 µg/plate) was 0.7. For the same compound, the “fold increase value (ratio treated/solvent revertant numbers)” value ([1]; Range finding, 1.95 µg/plate) was 1.0, the “fold increase value (ratio treated/solvent revertant numbers)” value ([1]; Range finding, 3.9 µg/plate) was 0.9 and the “fold increase value (ratio treated/solvent revertant numbers)” value ([1]; Range finding, 7.81 µg/plate) was 0.9. The “fold increase value (ratio treated/solvent revertant numbers)” value ([1]; Range finding, 15.63 µg/plate) was 0.7, the “fold increase value (ratio treated/solvent revertant numbers)” value ([1]; Range finding, 31.25 µg/plate) was 0.8 and the “fold increase value (ratio treated/solvent revertant numbers)” value ([1]; Range finding, 62.5 µg/plate) was 0.7. For the same compound, the “fold increase value (ratio treated/solvent revertant numbers)” value ([1]; Range finding, 125 µg/plate) was 0.9, the “fold increase value (ratio treated/solvent revertant numbers)” value ([1]; Range finding, 250 µg/plate) was 0.7 and the “fold increase value (ratio treated/solvent revertant numbers)” value ([1]; Range finding, 500 µg/plate) was 0.7. The “fold increase value (ratio treated/solvent revertant numbers)” value ([1]; Range finding, 1000 µg/plate) was 0.8, the IC50 ([2]; Plasmodium falciparum, 72 h, read-out: P. falciparum IC50 nM, IPC5202 (ARM-R), 72 h incubation, pLDH method) was < 15 nM and the IC50 ([2]; read-out: P. falciparum IC50 nM, IPC5202 (ARM-R), 72 h incubation, pLDH method) was 10 nM and 10.7 nM. The ED50 (P. yoelii NS; Plasmodium yoelii, 96 h, read-out: ED50 (95% CI) Mean) was 5.01 mg/kg, the “ED90 (95% CI) Mean” value (P. yoelii NS) was 8.98 (6.70–12.02) mg/kg and the toxicity finding (7-day oral DRF in dog) was “associated with mortality one week after last treatment due to acute renal failure”. The “fold increase value (ratio treated/solvent revertant numbers)” value ([3]; I° Exp., 62.5 µg/plate) was 0.6, the “fold increase value (ratio treated/solvent revertant numbers)” value ([3]; I° Exp., 125 µg/plate) was 0.6 and the “fold increase value (ratio treated/solvent revertant numbers)” value ([3]; I° Exp., 250 µg/plate) was 0.8. The “fold increase value (ratio treated/solvent revertant numbers)” value ([3]; I° Exp., 500 µg/plate) was 0.8, the “fold increase value (ratio treated/solvent revertant numbers)” value ([3]; I° Exp., 1000 µg/plate) was 0.8 and the “fold increase value (ratio treated/solvent revertant numbers)” value ([3]; Range finding, 1.95 µg/plate) was 1.1. The “fold increase value (ratio treated/solvent revertant numbers)” value ([3]; Range finding, 3.9 µg/plate) was 1.1, the “fold increase value (ratio treated/solvent revertant numbers)” value ([3]; Range finding, 7.81 µg/plate) was 1.2 and the “fold increase value (ratio treated/solvent revertant numbers)” value ([3]; Range finding, 15.63 µg/plate) was 0.9. The “fold increase value (ratio treated/solvent revertant numbers)” value ([3]; Range finding, 31.25 µg/plate) was 1.0, the “fold increase value (ratio treated/solvent revertant numbers)” value ([3]; Range finding, 62.5 µg/plate) was 1.0 and the “fold increase value (ratio treated/solvent revertant numbers)” value ([3]; Range finding, 125 µg/plate) was 1.0. For the same compound, the “fold increase value (ratio treated/solvent revertant numbers)” value ([3]; Range finding, 250 µg/plate) was 1.0, the “fold increase value (ratio treated/solvent revertant numbers)” value ([3]; Range finding, 500 µg/plate) was 1.2 and the “fold increase value (ratio treated/solvent revertant numbers)” value ([3]; Range finding, 1000 µg/plate) was 0.7. The inhibition at 3 µM (CYP2C19) was < 3%, the “Mean ∑FIC50 (95% CI)” value (P. falciparum 3D7 (CQ-S); in combination with ASN, 3D7, IC50 level) was 1.43 (1.30 – 1.55) and the “Mean ∑FIC50 (95% CI)” value (P. falciparum 3D7 (CQ-S); in combination with DHA, 3D7, IC50 level) was 1.49 (1.33 – 1.65). For the same compound, the “Mean ∑FIC50 (95% CI)” value (P. falciparum 3D7 (CQ-S); in combination with RKA-182, 3D7, IC50 level) was 1.45 (1.17 – 1.73) and the “interaction (isobologram)” value (P. falciparum 3D7 (CQ-S); in combination with azitromycin, 3D7 (CQ-S)) was “additive”.
